One data set addresses POLQ (Homo sapiens, UniProt O75417). The experiment in a line: γ-32P-ATP based radiometric ATPase assay. The format is biochemical. The settings on record: for inhibition of POLQ (ATPase) activity: FIG. 2B radiometric ATPase assay. How it is done: FIG. 2C is a bar plot showing quantification of the radiometric ATPase assay showing in FIG. 2B. SMARCAL1 was used as a control ATPase to identify inhibitors that show specificity to POLQ.
100 μM novobiocin was used in the assay. MTX=Mitoxantrone; SUR=Suramin sodium salt; NVB=novobiocin; AUR=Aurintricarboxylic acid; VAND=vandetanib (EGFR inhibitor, negative control).

For another data set, the system named is Alt-EJ repair pathway. The experiment in a line: GFP reporter assay using EJ2 repair substrate (Alt-EJ). In kind it is cell-based. The procedure: PARP inhibitor and ATM inhibitor were used as positive controls.
(§1) 10 μM concentration of each tested compound was used in the assay. Mitoxantrone and VAND kill cells.
(§2) 50 μM of each tested compound was used in the assay.
A general note: A reporter such as luciferase makes a cellular process visible.

In data set [1] the test system is BRCA1-deficient (HR-deficient) tumor cells. As to the kind of experiment: Rapid Cell Titer Glo assay. In kind it is cell-based.
The test system of a further data set is yH2AX foci. As to the kind of experiment: yH2AX foci formation. The format is cell-based. The settings on record: FIG. 12.
In data set [2] the test system is PARP inhibitor (olaparib) resistant RPE1 cells. The experiment in a line: PARP inhibitor (olaparib) resistant cell lines. The format is cell-based. The settings on record: FIG. 10.
In the next data set the test system is homologous recombination. The experiment in a line: Homologous recombination repair assay. In kind it is cell-based. The procedure:
as §1, §2

In data set [3] the test system is BRCA1-deficient tumor cells. The experiment in a line: Clonogenic survival assay, BRCA1-deficient tumor cells. The format is cell-based. The settings on record: FIG. 4, versus isogenic BRCA1-proficient cell line.
In another data set the test system is BRCA1−/− RPE1 cells. As to the kind of experiment: Clonogenic survival assay, RPE1 cells. The format is cell-based. The settings on record: FIGS. 6 and 7.
Another data set concerns the target POLQ ATPase domain (Homo sapiens, UniProt O75417). The experiment in a line: Pull-down with novobiocin-conjugated sepharose beads, POLQ. The format is binding. The note with it: FIG. 15; novobiocin conjugated to sepharose beads. An excerpt:
FIG. 14 contains an image showing that novobiocin was successfully conjugated to sepharose beads.
The color in the left tube is attributed to the novobiocin bound to the beads.

Another data set has as its system RAD51 foci. As to the kind of experiment: RAD51 foci formation. The format is cell-based. The note with it: FIG. 11.
Data set [4] relates to RPE1-p53−/− BRCA1−/− cells. As to the kind of experiment: Apoptosis, Annexin V kit. The note with it: FIG. 13, analyzed 4 days after NVB. The format is cell-based.

Each structure is given as a SMILES string. Structures can show the parent of a compound that is named as a salt.

Chain of POLQ (O75417 whole entry): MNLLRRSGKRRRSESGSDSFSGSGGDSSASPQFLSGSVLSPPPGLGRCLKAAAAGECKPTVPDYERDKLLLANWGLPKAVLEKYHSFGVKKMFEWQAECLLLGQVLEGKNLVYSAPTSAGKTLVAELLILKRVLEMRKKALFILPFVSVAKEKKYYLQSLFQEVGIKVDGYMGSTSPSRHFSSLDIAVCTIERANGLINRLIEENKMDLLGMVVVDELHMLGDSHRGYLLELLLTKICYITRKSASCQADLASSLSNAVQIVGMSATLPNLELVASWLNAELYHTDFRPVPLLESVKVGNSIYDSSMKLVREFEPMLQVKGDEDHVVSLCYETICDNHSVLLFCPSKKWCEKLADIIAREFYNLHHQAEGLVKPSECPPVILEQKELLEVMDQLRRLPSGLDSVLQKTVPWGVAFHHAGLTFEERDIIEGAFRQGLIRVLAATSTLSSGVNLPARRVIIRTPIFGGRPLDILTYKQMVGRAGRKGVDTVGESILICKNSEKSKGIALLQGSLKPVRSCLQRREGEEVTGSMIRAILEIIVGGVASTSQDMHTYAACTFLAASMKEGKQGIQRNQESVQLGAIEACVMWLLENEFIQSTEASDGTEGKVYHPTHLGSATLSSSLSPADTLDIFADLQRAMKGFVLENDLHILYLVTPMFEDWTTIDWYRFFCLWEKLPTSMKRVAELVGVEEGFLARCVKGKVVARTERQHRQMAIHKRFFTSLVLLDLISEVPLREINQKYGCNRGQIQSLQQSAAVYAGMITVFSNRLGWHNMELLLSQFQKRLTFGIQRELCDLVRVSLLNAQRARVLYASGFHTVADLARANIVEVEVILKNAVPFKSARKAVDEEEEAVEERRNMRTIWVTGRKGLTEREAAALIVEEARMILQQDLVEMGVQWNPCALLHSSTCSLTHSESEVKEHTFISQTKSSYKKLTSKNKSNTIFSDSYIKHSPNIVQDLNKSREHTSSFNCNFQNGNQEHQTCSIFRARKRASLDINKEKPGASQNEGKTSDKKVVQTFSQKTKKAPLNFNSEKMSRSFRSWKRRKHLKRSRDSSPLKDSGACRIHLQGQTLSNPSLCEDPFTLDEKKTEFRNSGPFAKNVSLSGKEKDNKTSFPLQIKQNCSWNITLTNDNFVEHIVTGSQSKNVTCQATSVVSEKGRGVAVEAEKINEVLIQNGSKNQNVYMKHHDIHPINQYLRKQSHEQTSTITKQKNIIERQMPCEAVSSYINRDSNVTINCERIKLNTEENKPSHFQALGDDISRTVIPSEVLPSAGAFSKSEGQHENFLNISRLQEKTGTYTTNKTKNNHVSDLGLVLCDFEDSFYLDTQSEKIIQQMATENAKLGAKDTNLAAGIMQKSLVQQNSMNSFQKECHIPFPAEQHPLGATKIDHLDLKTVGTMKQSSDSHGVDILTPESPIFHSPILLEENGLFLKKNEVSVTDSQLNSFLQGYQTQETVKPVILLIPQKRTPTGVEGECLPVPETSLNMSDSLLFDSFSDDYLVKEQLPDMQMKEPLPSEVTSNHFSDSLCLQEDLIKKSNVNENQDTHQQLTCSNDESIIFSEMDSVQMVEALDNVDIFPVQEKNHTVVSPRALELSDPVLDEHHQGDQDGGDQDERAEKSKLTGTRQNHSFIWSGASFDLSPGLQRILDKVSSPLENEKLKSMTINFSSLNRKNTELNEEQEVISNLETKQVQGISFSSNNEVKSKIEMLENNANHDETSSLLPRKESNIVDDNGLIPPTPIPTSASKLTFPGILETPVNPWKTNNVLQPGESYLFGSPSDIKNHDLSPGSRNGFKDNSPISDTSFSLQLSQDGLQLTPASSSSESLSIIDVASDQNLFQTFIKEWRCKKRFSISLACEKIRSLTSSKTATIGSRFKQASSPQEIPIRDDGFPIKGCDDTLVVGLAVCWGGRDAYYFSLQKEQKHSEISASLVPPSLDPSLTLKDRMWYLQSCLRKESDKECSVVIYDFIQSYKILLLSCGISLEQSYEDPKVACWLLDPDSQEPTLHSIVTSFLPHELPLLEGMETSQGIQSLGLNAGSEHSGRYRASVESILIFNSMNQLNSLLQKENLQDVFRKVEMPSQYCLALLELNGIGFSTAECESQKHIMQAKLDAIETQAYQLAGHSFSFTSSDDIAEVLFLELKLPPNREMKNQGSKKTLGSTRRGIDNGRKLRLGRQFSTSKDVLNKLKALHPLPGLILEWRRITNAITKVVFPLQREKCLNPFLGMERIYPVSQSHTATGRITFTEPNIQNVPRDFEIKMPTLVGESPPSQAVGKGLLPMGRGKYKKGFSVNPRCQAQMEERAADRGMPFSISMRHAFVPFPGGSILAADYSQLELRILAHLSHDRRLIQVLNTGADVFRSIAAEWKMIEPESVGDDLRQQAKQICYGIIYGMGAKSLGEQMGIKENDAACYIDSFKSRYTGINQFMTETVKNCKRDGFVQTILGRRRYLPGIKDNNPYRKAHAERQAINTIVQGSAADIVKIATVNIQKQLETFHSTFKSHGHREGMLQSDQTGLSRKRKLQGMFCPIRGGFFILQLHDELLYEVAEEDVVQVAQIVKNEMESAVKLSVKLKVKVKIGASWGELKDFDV
Chain of POLQ ATPase domain (O75417 102-554 limits assumed): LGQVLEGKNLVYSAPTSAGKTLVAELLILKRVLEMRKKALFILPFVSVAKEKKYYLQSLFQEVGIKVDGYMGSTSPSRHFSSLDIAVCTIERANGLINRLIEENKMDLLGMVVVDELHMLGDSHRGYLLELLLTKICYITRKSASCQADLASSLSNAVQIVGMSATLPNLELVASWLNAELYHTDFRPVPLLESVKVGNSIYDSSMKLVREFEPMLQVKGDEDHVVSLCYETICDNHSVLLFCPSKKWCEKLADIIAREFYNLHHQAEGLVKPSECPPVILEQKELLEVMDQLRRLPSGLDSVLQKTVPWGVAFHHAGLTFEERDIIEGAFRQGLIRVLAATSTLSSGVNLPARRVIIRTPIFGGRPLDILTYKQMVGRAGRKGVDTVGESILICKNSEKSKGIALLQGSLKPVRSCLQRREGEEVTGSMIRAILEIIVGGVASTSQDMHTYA

As to `Cc1ccc(C(=O)Nc2ccc(S(=O)(=O)O)c3cc(S(=O)(=O)O)cc(S(=O)(=O)O)c23)cc1NC(=O)c1cccc(NC(=O)Nc2cccc(C(=O)Nc3cc(C(=O)Nc4ccc(S(=O)(=O)O)c5cc(S(=O)(=O)O)cc(S(=O)(=O)O)c45)ccc3C)c2)c1` [S, Suramin sodium salt], on POLQ, the “inhibition of POLQ (ATPase) activity” value is “inhibited POLQ activity”.

With `COc1cc2c(Nc3ccc(Br)cc3F)ncnc2cc1OCC1CCN(C)CC1` [VAND, vandetanib], the “cell killing in the repair assay” value in the data set on Alt-EJ repair pathway (FIG. 8, 10 μM) was “kill cells”; in the data set with Alt-EJ repair pathway (FIG. 9, 50 μM), “killed all cells”.

In the case of `O=C1c2c(O)ccc(O)c2C(=O)c2c(NCCNCCO)ccc(NCCNCCO)c21` [Mitoxantrone], on POLQ, the “inhibition of POLQ (ATPase) activity” value was “inhibited POLQ activity”. For the same compound, the “cell killing in the repair assay” value was “kill cells” with Alt-EJ repair pathway (FIG. 8, 10 μM) and “killed all cells” in the data set with Alt-EJ repair pathway (FIG. 9, 50 μM).

As for `O=C(c1cc(Cc2n[nH]c(=O)c3ccccc23)ccc1F)N1CCN(C(=O)C2CC2)CC1` [olaparib], the “selective killing of BRCA1-deficient (HR-deficient) tumor cells” value in data set [1] (FIG. 3) was “selectively kills BRCA1-deficient (HR-deficient) tumor cells”.

For the compound `CO[C@@H]1[C@@H](OC(N)=O)[C@@H](O)[C@H](Oc2ccc3c(O)c(NC(=O)c4ccc(O)c(CC=C(C)C)c4)c(=O)oc3c2C)OC1(C)C` [novobiocin], in the data set on yH2AX foci, the yH2AX foci formation result was “induces RAD51 and yH2AX foci formation”. Further, the “killing of PARP inhibitor resistant RPE1 cells” value in data set [2] is on record as “kills RPE1 cells that are resistant to the PARP inhibitor”. The “selective killing of BRCA1-deficient (HR-deficient) tumor cells” value is “selectively kills BRCA1-deficient (HR-deficient) tumor cells” in data set [1] (FIG. 3) and “selectively kills HR-deficient cells as strongly as PARP inhibitor” in data set [1] (FIG. 3, listed as Novobiocin). The “inhibition of homologous recombination” value is recorded as “not homologous recombination” in the data set on homologous recombination (FIG. 8, 10 μM) and “not homologous recombination” with homologous recombination (FIG. 9, 50 μM). The results for the “selective killing of BRCA1-deficient tumor cells” value in data set [3] and in [3] (listed as Novobiocin) were “selectively kills the BRCA1-deficient tumor cells” and “selectively kills BRCA1-deficient tumor cells”, respectively. The “specific killing of BRCA1−/− RPE1 cells” value in the data set on BRCA1−/− RPE1 cells was “specifically kills BRCA1−/− RPE1 cells”. Besides, the “binding / pull-down of POLQ ATPase domain” value at POLQ ATPase domain was “specifically binds to POLQ ATPase domain”. The “inhibition of POLQ (ATPase) activity” value against POLQ (listed as N) was “inhibited POLQ activity”; against POLQ (listed as Novobiocin), “inhibits the ATPase of POLQ”. The “specificity to POLQ” value on POLQ (FIG. 2C, SMARCAL1 used as control ATPase) is on record as “showed some specificity to POLQ”. At POLQ (FIG. 5, 32P-based ATPase activity assay, 100 μM novobiocin), the “inhibition of ATPase activity of POLQ” value is “specifically inhibits ATPase activity of POLQ”. Also, the “POLQ ATPase inhibition compared with related ATPases” value at POLQ (versus ATPase activity of SMARCA or CHD1) is “inhibits the POLQ ATPase more strongly than it inhibits the ATPase activity of SMARCA or CHD1”. Besides, the “inhibition of Alt-EJ” value in the data set with Alt-EJ repair pathway (FIG. 2D, EJ2 repair substrate GFP reporter) was “inhibited Alt-EJ”. For the same compound, the “inhibition of alternative end-joining” value was “inhibits alternative end-joining” in the data set with Alt-EJ repair pathway (FIG. 8, 10 μM) and “inhibits alternative end-joining” in the data set on Alt-EJ repair pathway (FIG. 9, 50 μM). Further, the RAD51 foci formation result in the data set on RAD51 foci is “induces RAD51 and yH2AX foci formation”. The induction of apoptosis entry in [4] is recorded as “induces apoptosis specifically in RPE1-p53−/− BRCA1−/− cells”.

For the origin of these results see patent publication USRE50319E1, “Compounds and methods for treating cancer” (Dana-Farber Cancer Institute, Inc., priority 2017, dated 2025).
